Results taken from US6423519B1, “Compositions and methods for inhibiting fungal growth” (GPC Biotech Inc., priority 1998, dated 2002).
In brackets after ≈: the same amount, converted by molar mass. Where two headings read alike, the source gives them in different places.

Tests used:
H460 Cell Line = assay: Cytotoxicity of GGPTase inhibitors in human cells, H460 (Sulforhodamine B); format: cell-based; settings: NCI-H460, read-out: Human cell IC50 (nM) H460
Experimental: (§1) (A) Plate out cells at predetermined concentration in a volume of 150 μl.
(§2) (B) Allow cells to adhere to plate for twenty four hours
(§3) (C) Add compounds to cells at predetermined concentration (62.5 μg/mL down four-fold, 8 dilutions) n=2
(§4) (D) Cells are exposed to drug for 7 days for the IMR90 Cell Line, and a period of 3 days for the H460 Cell Line.
(E) 1. H460 Cells are fixed in TCA, rinsed, stained with Sulforhodamine B stain, and the stain is solubilized for a final OD read.

C. albicans GGPTase = molecular target: T1, C. albicans GGPTase (Candida albicans, UniProt Q8J224+Q9Y764); assay: biochemical
T1 sequence (Q9Y764 1-398): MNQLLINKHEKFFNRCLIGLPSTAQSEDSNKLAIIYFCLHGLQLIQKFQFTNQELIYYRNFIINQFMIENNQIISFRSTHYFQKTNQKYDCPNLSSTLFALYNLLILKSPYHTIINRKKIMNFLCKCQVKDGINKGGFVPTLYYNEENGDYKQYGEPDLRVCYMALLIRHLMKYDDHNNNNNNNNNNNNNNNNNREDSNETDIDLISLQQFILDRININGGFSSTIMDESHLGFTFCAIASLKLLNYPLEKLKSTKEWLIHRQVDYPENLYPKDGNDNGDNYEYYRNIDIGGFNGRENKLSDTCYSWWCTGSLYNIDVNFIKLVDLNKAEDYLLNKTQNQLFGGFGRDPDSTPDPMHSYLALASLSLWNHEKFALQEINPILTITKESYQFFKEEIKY
T1 sequence (Q8J224 1-306): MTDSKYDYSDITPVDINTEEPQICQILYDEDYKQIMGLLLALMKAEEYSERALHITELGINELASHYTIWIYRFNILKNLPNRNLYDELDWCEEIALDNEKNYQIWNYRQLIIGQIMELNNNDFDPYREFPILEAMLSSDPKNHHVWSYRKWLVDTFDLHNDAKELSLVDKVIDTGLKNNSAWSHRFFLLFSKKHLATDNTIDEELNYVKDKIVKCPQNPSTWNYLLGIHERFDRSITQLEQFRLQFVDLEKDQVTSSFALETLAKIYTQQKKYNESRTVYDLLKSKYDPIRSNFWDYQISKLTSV
Experimental: Plate test compounds (10 μL per well) at predetermined concentration in 50% DMSO. For background control (blank) and reaction control (negative), add 10 μL of 200 μM GGPP and 10 μL 50% DMSO, respectively. Prepare assay buffer: 50 mM Tris, pH7.5, 20 mM KCL, 5 mM MgCl2, 5 μM ZnCl2, 0.5 mM Zw(3-14), 2 mM DTT and 0.1 mg/mL BSA.
Add 20 μL of C. albicans GGPTase and ^3H-GGPP in assay buffer to test compound. Preincubate enzyme and ^3H-GGPP with test compound for 15 minutes at room temperature. Add 20 μL C. albicans Rho in assay buffer. Incubate for 30 minutes at room temperature. Final assay conditions are 2 nM C. albicans GGPTase, 250 nM ^3H-GGPP and 250 nM C. albicans Rho.
Add 100 μL 15 mM GGPP, 50 mM Tris, pH7.0 and 2% BSA to quench reaction. Transfer reaction to Nickel chelate FlashPlate. Allow his-tagged C. albcians Rho to capture onto plate. Rinse plate 1× with 200 μL 20 mM Tris, pH7.0. Read in TOPCOUNT.

human GGTase = human GGTase (Homo sapiens, UniProt P53609); assay: Human GGTase inhibition (Hu GG); format: biochemical
Description: As described below, a variety of different compounds were synthesized and tested for inhibitory activity against human and Candida GGTase. Exemplary synthesis schemes for generating prenyltransferase inhibitors useful in the methods and compositions of the present invention are shown in FIGS. 1-56. Tables 1-5 provide Structure-Activity relationship (SAR) data for several different classes of prenyltransferase inhibitors.

C. albicans = assay: Determination of minimum fungicidal concentration (MFC); format: cell-based; settings: Candida albicans
Experimental: After the required time course for the MIC determination, the minimum fungicidal concentration can then be determined by plating out the entire contents of the well of the microtitre plates onto YPD or Sabourand plates. These plates are then incubated at 35° C. for 24-48 hrs. The MFC corresponds to the concentration of compound where no cellular growth is observed on the plate. For compound 99a, and MFC was calculated of 2 μg/ml.

IMR90 Cell Line = assay: Cytotoxicity of GGPTase inhibitors in human cells, IMR90 (MTT); format: cell-based; settings: IMR-90, read-out: Human cell IC50 (nM) IMR90
Experimental: as §1, §2, §3, §4
2. IMR90 Cells have 3-{4,5-Dimethylthiazol-2-yl}-2,5-diphenyltetrazolium bromide (MTT) added to them for three hours prior to final read out. After the three hours, media and MTT are removed and MTT crystals are solubilized in 100% DMSO for final OD read.

MycCaRHO1 = assay: Prenylation state / localisation of newly synthesized MycCaRHO1 (fractionation, Western blot); format: cell-based, C. albicans; settings: 3 μg/ml, strain DIY-BL2-058, versus mock (DMSO) treated cells
Experimental: To look at the effect of GGPTase I inhibitors in vivo a recombinant C. albicans strain engineered to express a Myc tagged CaRHO1 under the control of the C. albicans phosphoenolpyruvate carboxykinase 1 (PCK1) promoter is used. This promoter is repressed by glucose and derepressed by gluconeogenic carbon sources such as succinate. It should also be possible to be look at the endogenous substrates of the GGPTase I. Cells are treated with a sublethal dose of compound for a period of time which has been established from a kill curve analysis in the appropriate media. After the treatment time, cells are harvested and whole cell extracts (WCE) made, these extracts are then resolved by high speed centrifugation into cytosolic and membrane fractions. Visualisation of the localisation of the MycCaRHO1 is achieved by sodium dodecyl sulfate-polyacrylamide gel electrophoresis (SDS-PAGE) and Western blotting. […]
Cells of strain DIY-BL2-058 were grown overnight in YNB supplemented with 1 μg/ml histidine, 2 μg/ml methionine, 2 μg/ml tryptophan, 200 μg/ml glutamine and 2% glucose at 220 rpm at 31° C. The cell number was then determined, cells were pelleted by centrifugation and resuspended in fresh media at a density of 1×10^7 cells/ml and incubated as above. […]
Fractions were thawed on ice. The protein concentration was determined using the standard Bradford method for the WCEs and cytosolic fraction. […]

With CC(C)C[C@H](NC(=O)C1(c2ccccc2)CCN(C(=O)[C@@H](N)CS)CC1)C(=O)N[C@@H](C)C(=O)O [Compound 99a] the IC50 (H460 Cell Line) was > 10000 nM, the IC50 (C. albicans GGPTase; Table 3 Piperidine Analogs, read-out: IC50 (nM) Ca GG) was < 50 nM and the IC50 (C. albicans GGPTase; Table 5, read-out: IC50 (nM) Candida) was < 50 nM. The IC50 (human GGTase; Table 3 Piperidine Analogs, read-out: IC50 (nM) Hu GG) was > 500 nM, the IC50 (human GGTase; Table 5, read-out: IC50 (nM) Human) was > 500 nM and the MFC (C. albicans; read-out: Candida MFC (g/mL)) was 2 mg/L (≈ 4.06 µM). For the same compound, the MFC (C. albicans; read-out: MFC) was 2 mg/L (≈ 4.06 µM), the IC50 (IMR90 Cell Line) was > 10000 nM and the “abundance of MycCaRHO1 in the cytosolic fraction (FIG. 57)” value (MycCaRHO1) was “increases the abundance of MycCaRHO1 in the cytosolic fraction”.
